The text below walks through data of PMC5993337, “De novo biosynthesis of sterols and fatty acids in the Trypanosoma brucei procyclic form: Carbon source preferences and metabolic flux redistributions” (PLoS Pathogens, 2018).

This experiment has as its target T1, IVDH (isovaleryl-CoA dehydrogenase), his-tagged recombinant T. brucei IVDH (Trypanosoma brucei, UniProt Q387A0).
T1 construct: gene Tb11.55.0026; lacks N-terminal 13 residues (gene positions 41 to 1234 bp), 6 His codons at 3' end, pET28, E. coli BL21(DE3) with GroEL-ES
T1 sequence (Q387A0 14-411): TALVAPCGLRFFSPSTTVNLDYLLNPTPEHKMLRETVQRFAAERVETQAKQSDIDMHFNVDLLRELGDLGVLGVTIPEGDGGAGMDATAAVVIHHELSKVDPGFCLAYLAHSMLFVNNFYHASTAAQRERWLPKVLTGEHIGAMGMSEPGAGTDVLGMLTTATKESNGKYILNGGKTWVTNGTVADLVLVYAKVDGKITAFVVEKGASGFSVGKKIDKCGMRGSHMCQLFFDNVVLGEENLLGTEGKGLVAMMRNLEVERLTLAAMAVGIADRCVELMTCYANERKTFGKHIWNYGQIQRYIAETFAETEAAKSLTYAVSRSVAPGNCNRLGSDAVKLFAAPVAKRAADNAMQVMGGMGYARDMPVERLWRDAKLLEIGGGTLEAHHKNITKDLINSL
Description: spectrophotometric dye-reduction assay ([…],6-dichloroindophenol, […] nm). It counts as biochemical. The note with it: isovaleryl-CoA 52.5 uM, phenazine methosulfate 1.5 mM, FAD 10 uM, 100 mM KPi pH 7.0, 25 °C.

Molecules are shown by their SMILES.

Regarding `CC(C)CC(=O)SCCNC(=O)CCNC(=O)[C@H](O)C(C)(C)COP(=O)(O)OP(=O)(O)OC[C@H]1O[C@@H](n2cnc3c(N)ncnc32)[C@H](O)[C@@H]1OP(=O)(O)O` [isovaleryl-CoA], the “spectrophotometric dye-reduction assay (2,6-dichloroindophenol, 600 nm)” value was “specific activity of the his-tagged recombinant T. brucei IVDH purified to homogeneity for its substrate”.
